# Read-outs that look alike come from different tables or passages of the source. Starred links: 1 amine or outer side, 2 acyl side, 3 side chain; linkers in the order of their positions; H or OH if unused. Non-standard residues stand in square brackets, D forms with d. Residues, ends and D or L forms follow the SMILES beside them. *: point of attachment. PABC(3-O-βDGlc) = O=C(OCc1ccc(N[*:1])c(O[C@@H]2O[C@H](CO)[C@@H](O)[C@H](O)[C@H]2O)c1)[*:2]; X1 = Cc1cc(F)cc(-c2cnc(NCCNC(=O)CCOCCC(=O)*)c(-c3nc4ccc(Cl)cc4[nH]3)c2N2CCC(N)CC2)c1; Dolaproine = CO[C@@H]([C@@H]1CCCN1)[C@@H](C)C(=O)O; Dil = CC[C@H](C)[C@H](NC)[C@@H](CC(=O)O)OC; X2 = C[C@@H](N*)[C@@H](O)c1ccccc1; NMeV = CN[C@H](C(=O)O)C(C)C
# Key:
# Assay type in all cases: cell-based
# [1] = test system: NCI-H524 (ATCC) human small cell lung cancer cells
# Method in brief: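 NCI-H524 cells (5,000/well) were exposed 24 h after plating to SMDC for 2 h, 11-point two-fold series from 1 uM. After washout they grew a further 70 h. Proliferation was read by CellTiter-Glo luminescence, % inhibition taken vs untreated control, and IC50 fitted by four-parameter nonlinear regression.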
# [2] = target: T1, human somatostatin receptor subtype 2 (Homo sapiens, UniProt P30874); experiment: Functional cAMP assay for SSTR2 agonists (HTRF) in CHO-K1 cells; settings: CHO-K1 cells stably expressing human SST2, 20 min
# T1 construct: expressed in transfected cells
# T1 sequence (P30874 whole entry): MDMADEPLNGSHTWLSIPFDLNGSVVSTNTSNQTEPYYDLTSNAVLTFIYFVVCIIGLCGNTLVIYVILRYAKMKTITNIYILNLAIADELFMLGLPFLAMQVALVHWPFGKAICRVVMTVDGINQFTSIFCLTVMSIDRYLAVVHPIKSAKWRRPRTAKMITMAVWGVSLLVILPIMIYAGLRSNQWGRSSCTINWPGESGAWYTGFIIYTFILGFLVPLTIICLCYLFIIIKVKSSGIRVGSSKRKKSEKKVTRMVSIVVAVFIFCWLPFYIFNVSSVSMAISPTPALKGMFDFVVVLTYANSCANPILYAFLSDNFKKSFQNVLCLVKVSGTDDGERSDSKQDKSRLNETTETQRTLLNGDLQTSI
# Method in brief: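 CHO-K1 cells stably expressing receptor, plated 4 days before assay, treated 20 min at 37° C. with compound (typically 0-10,000 nM final) plus IBMX and 1.6 μM NKH477 to raise cAMP. HTRF read, 665/620 nm ratio; cAMP from standard curve, EC50 fitted.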
# [3] = target: T2, SST2 (Homo sapiens, UniProt P30874); experiment: PathHunter CHO-K1 SST2 internalization assay; settings: PathHunter CHO-K1 SST2, 90 min
# T2 construct: host or cells: PathHunter CHO-K1 SST2 cells
# T2 sequence (P30874 whole entry): as above
# Method in brief: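 PathHunter CHO-K1 SST2 cells, seeded and grown 48 h, were exposed to 11-point 1:3 dilutions of SMDC (top final 10 uM) for 90 min at 37 C, 5% CO2. Beta-Glo luminescence was read after 60 min at room temperature. Background-corrected duplicate means were fitted by four-parameter nonlinear regression to give IC50.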
# [4] = 2 h treatment, washout, additional 70 h, read-out: H524 EC50
SMILES,EC50 ([1]; 2 h) [nM],EC50 ([2]; read-out: hSST2 cAMP Avg EC50) [nM],EC50 ([3]; read-out: Internalization EC50) [nM],"EC50 [1, 4] [nM]",EC50 ([2]; hSST2 cAMP Avg EC50 (nM)) [nM],EC50 ([3]; Internalization EC50 (nM)) [nM]
CC[C@H](C)[C@@H]([C@@H](CC(=O)N1CCC[C@H]1[C@H](OC)[C@@H](C)C(=O)N[C@H](C)[C@@H](O)c1ccccc1)OC)N(C)C(=O)[C@@H](NC(=O)[C@H](C(C)C)N(C)C(=O)OCc1ccc(NC(=O)CCOCCOCCOCCOCCC(=O)NCCNc2ncc(-c3cc(C)cc(F)c3)c(N3CCC(N)CC3)c2-c2nc3ccc(Cl)cc3[nH]2)c(O[C@@H]2O[C@H](C(=O)O)[C@@H](O)[C@H](O)[C@H]2O)c1)C(C)C [Compound 64],9500,0.1,12,,,
CC[C@@]1(O)C(=O)OCc2c1cc1n(c2=O)Cc2c-1nc1cc(F)c(C)c3c1c2[C@@H](NC(=O)OCc1ccc(NC(=O)[C@H](C)NC(=O)[C@@H](NC(=O)CCOCCC(=O)NCCNc2ncc(-c4cc(C)cc(F)c4)c(N4CCC(N)CC4)c2-c2nc4ccc(Cl)cc4[nH]2)C(C)C)c(O[C@@H]2O[C@H](C(=O)O)[C@@H](O)[C@H](O)[C@H]2O)c1)CC3 [Compound 65],,,,250,0.27,1.5
CC[C@H](C)[C@@H]([C@@H](CC(=O)N1CCC[C@H]1[C@H](OC)[C@@H](C)C(=O)N[C@H](C)[C@@H](O)c1ccccc1)OC)N(C)C(=O)[C@@H](NC(=O)[C@H](C(C)C)N(C)C(=O)OCc1ccc(NC(=O)[C@H](C)NC(=O)[C@@H](NC(=O)CCOCCC(=O)N[C@@H](CS(=O)(=O)O)C(=O)NCCNc2ncc(-c3cc(C)cc(F)c3)c(N3CCC(N)CC3)c2-c2nc3ccc(Cl)cc3[nH]2)C(C)C)c(O[C@@H]2O[C@H](CO)[C@@H](O)[C@H](O)[C@H]2O)c1)C(C)C [Compound 66],300,0.13,15,,,
CC[C@H](C)[C@@H]([C@@H](CC(=O)N1CCC[C@H]1[C@H](OC)[C@@H](C)C(=O)N[C@H](C)[C@@H](O)c1ccccc1)OC)N(C)C(=O)[C@@H](NC(=O)[C@H](C(C)C)N(C)C(=O)OCc1ccc(NC(=O)[C@H](C)NC(=O)[C@@H](NC(=O)[C@H](CCC(=O)O)NC(=O)CCOCCC(=O)NCCNc2ncc(-c3cc(C)cc(F)c3)c(N3CCC(N)CC3)c2-c2nc3ccc(Cl)cc3[nH]2)C(C)C)c(O[C@@H]2O[C@H](CO)[C@@H](O)[C@H](O)[C@H]2O)c1)C(C)C [Compound 67] (X1-EVA[PABC(3-O-βDGlc)][NMeV]V[Dil][Dolaproine]-X2),41,0.19,6.7,,,
CC[C@H](C)[C@@H]([C@@H](CC(=O)N1CCC[C@H]1[C@H](OC)[C@@H](C)C(=O)N[C@H](C)[C@@H](O)c1ccccc1)OC)N(C)C(=O)[C@@H](NC(=O)[C@H](C(C)C)N(C)C(=O)OCc1ccc(NC(=O)[C@H](CCCNC(N)=O)NC(=O)[C@@H](NCCOCCOCCOCCOCCC(=O)NCCNc2ncc(-c3cc(C)cc(F)c3)c(N3CCC(N)CC3)c2-c2nc3ccc(Cl)cc3[nH]2)C(C)C)cc1)C(C)C [Compound 69],14.5,0.25,7.8,,,
CC[C@H](C)[C@@H]([C@@H](CC(=O)N1CCC[C@H]1[C@H](OC)[C@@H](C)C(=O)N[C@H](C)[C@@H](O)c1ccccc1)OC)N(C)C(=O)[C@@H](NC(=O)[C@H](C(C)C)N(C)C(=O)OCc1ccc(NC(=O)[C@H](CCCNC(N)=O)NC(=O)[C@@H](NC(=O)CCOCCC(=O)N[C@@H](CS(=O)(=O)O)C(=O)NCCNc2ncc(-c3cc(C)cc(F)c3)c(N3CCC(N)CC3)c2-c2nc3ccc(Cl)cc3[nH]2)C(C)C)cc1)C(C)C [Compound 70],68,0.44,17,,,
CC[C@@]1(O)C(=O)OCc2c1cc1n(c2=O)Cc2c-1nc1cc(F)c(C)c3c1c2[C@@H](NC(=O)OCc1ccc(NC(=O)[C@H](CCCNC(N)=O)NC(=O)[C@@H](NC(=O)[C@H](CCC(=O)O)NC(=O)CCOCCC(=O)NCCNc2ncc(-c4cc(C)cc(F)c4)c(N4CCC(N)CC4)c2-c2nc4ccc(Cl)cc4[nH]2)C(C)C)cc1)CC3 [Compound 71],,,,270,0.29,1.6
CC[C@@]1(O)C(=O)OCc2c1cc1n(c2=O)Cc2c-1nc1cc(F)c(C)c3c1c2[C@@H](NC(=O)OCc1ccc(NC(=O)[C@H](CCCNC(N)=O)NC(=O)[C@@H](NC(=O)CN2CCN(CC(=O)O)CCN(CC(=O)NCCOCCC(=O)NCCNc4ncc(-c5cc(C)cc(F)c5)c(N5CCC(N)CC5)c4-c4nc5ccc(Cl)cc5[nH]4)CC2)C(C)C)cc1)CC3 [Compound 72],,,,31,0.28,3.9

# From patent publication US12134610B2, “Somatostatin subtype-2 receptor (SST2R) targeted therapeutics and uses thereof” (priority 2022, dated 2024)
